According to patent US20060035964A1, “Hypoglycemic agent, liver protecting agent and anticancer agent containing lignans originating in hongdoushan” (priority 2002, published 2006):
Values after ≈ are worked out from the molar mass of the structure shown.

How the values were obtained:
[1] = system: primary cultured mouse hepatocytes; assay: Inhibitory activity on TNF-α-induced cell death in primary cultured mouse hepatocytes (MTT); type: cell-based; details: D-galactosamine 0.5 mM + TNF-α 100 ng/mL; compounds at 200, 100, 50 and 10 μM; 18 hours; compared with Control
Description: Hepatic parenchymal cells were separated from the lives of male mice of ddY strains by means of a collagenase recirculation method. The separated hepatic parenchymal cells were suspended in the William's E culture medium, which was supplemented with 10% calf blood serum, 100 IU/mL penicillin G, 100 µg/mL streptomycin, 100 μM dexamethasone, and 50 ng/mL insulin, and incubated in a 96-well plastic plate (1.5×10^4 cells/well). The culture medium was replaced with a fresh culture medium containing D-galactosamine (0.5 mM) and lignans after 2-hour pre-incubation. TNF-α (100 ng/mL) was added to each well 30 minutes later. The hepatocytes viability was assessed 18 hours later by means of MTT(3-(4,5-dimethylthiazol-2-yl)-2,5-[…] bromide) colorimetric reaction.
The vertical axis of the graph represents cell viability in percentage. The bar of Normal is cell viability in the TNF-α-untreated culture medium. The bar of Control is cell viability in the test compound-untreated culture medium.
TAX, HYL, SIL, and ITX were treated at 200 μM, 100 μM, 50 μM, and 10 μM in the culture medium. Cell viability of each item is shown in the bar graphs.

[2] = system: D-GalN/LPS-induced hepatic damage in mice; assay: D-GalN/LPS-induced hepatic damage model; type: in vivo, mouse; details: for GOT level in blood serum / GPT level in blood serum / TNF-α level in blood serum: ddY mice, subcutaneous 10 mg/kg and 50 mg/kg; for GOT level in blood serum / GPT level in blood serum: 12 h and 1 h before D-GalN/LPS, measured 8 hours after injection; for TNF-α level in blood serum: measured 90 minutes after D-GalN/LPS injection, ELISA; for Histopathological observation of hepatic cells (apoptosis): 8 hours after the injection of D-GalN/LPS, compared with control group
Description: Evaluation by D-galactosamine (hereinafter called “D-GalN”)/Lipopolysaccharide (hereinafter called “LPS”)-induced hepatic damage model (J. Wang et al., Biochem. Pharm., 39, 267 (1990), A. Wendel et al., Biochem. Pharm., 35, 2115 (1986))
Male mice of ddY strains (age: 6 weeks) kept fast for 12 hours, and then hepatic damage was induced in the mice by injecting D-GalN (700 mg/kg)/LPS (10 μg/kg) into their abdominal cavity. Test compounds were given subcutaneously to the mice 2 times: 12 hours and 1 hour before the injection of D-GalN/LPS. They were arranged into 2 groups which were given test compounds: a group in a dose of 50 mg/kg (weight of rat), and a group in a dose of 10 mg/kg (weight of rat). There were also a control group which was given normal saline solution and a group which was given silymarin, a known hepatoprotective agent, (subcutaneous administration in a dose of 100 mg/kg) for comparison of medicinal benefits.
Tumor necrosis factor alpha (hereinafter called “TNF-α”) level in the blood was measured 90 minutes after the injection of D-GalN/LPS. Furthermore, levels of GPT (glutamic-pyruvic transaminase) and GOT (glutamic oxaloacetic transaminase) in the blood were measured 8 hours after the injection.
TNF-α level was measured by means of the ELISA method using an anti-mouse TNF-α antibody (manufactured by Endogen, Inc., USA), and levels of GPT and GOT were measured by using a Transaminase CII-Test kit (manufactured by Wako Pure Chemical Industries, Ltd.).
The hepatic damage mechanism induced in this damage model is thought to have high correlativity with clinical results as a model of immunological hepatic damage outbreak because of a series of process such as activation of cells involved in immunity, infiltration into hepatic tissues, secretion of cytokine and autocoid such as leukotriene D4 and TNF-α, and apoptosis of hepatic cells.

[3] = system: murine colon 26-L5 carcinoma cells; assay: Antiproliferative activity against cultured cancer cells (MTT), colon 26-L5; type: cell-based; details: for IC50: Mus musculus, average of 4 wells
Description: (§1) Compounds of lignans and hongdoushan fractions were tested for their antiproliferative activity against human HT-1080 fibrosarcoma cells and murine colon 26-L5 carcinoma cells. Human HT-1080 fibrosarcoma cells were cultured in the EMEM medium supplemented with 10% FCS (heat-inactivated fetal calf serum) and 0.1% sodium bicarbonate, and 2 mM glutamine. On the other hand, murine colon 26-L5 carcinoma cells were cultured in the RPMI medium containing the same supplements as in the EMEM medium. Cell viability was determined by means of MTT(3-(4,5-dimethylthiazol-2-yl)-2,5-[…] bromide).
(§2) The cells were cultured in a 96-well plate, which was supplemented with a cell suspension medium solution. In this case, each well had approximately 2,000 cells in 100 μL. The cells grew exponentially during the cultivation.
(§3) Twenty four hours later, when the cells adhered to the plate, the medium solution was removed, and then the cells were treated with a test compound medium solution (100 μL) at various concentrations (100 μg/mL, 50 μg/mL, 10 μg/mL, 5 μg/mL, and 1 μg/mL). The cells were cultured at 37° C. under 5% CO2. In this case, the test compounds were first dissolved in DMSO and then diluted in the medium. The concentration of DMSO was adjusted to be finally below 0.25%.
(§4) Next, the medium solution was removed, and the dissolved MTT (100 μL) was added to the medium. After three-hour incubation of the cells, the amount of the formazan formed was measured spectrophotometrically at 550 nm with a plate reader HTS-7000 (manufactured by Perkin Elmer).

[4] = system: human HT-1080 fibrosarcoma cells; assay: Antiproliferative activity against cultured cancer cells (MTT), HT-1080; type: cell-based; details: for IC50: Homo sapiens, HT-1080, average of 4 wells
Description: as §1, §2, §3, §4

[5] = system: diabetic rats induced by injecting STZ; assay: Decrease activity in blood glucose level in STZ-induced diabetic rats; type: in vivo, rat; details: STZ diabetic Wistar rats; for Reduction of blood glucose level: 10 mg/kg into abdominal cavity 5 times at 12 h intervals (positive control: tolbutamide 200 mg/kg + buformin 1 mg/kg)
Description: Activities of compounds of lignans and hongdoushan fractions in decreasing blood glucose level were assessed by using rats.
Blood serums were obtained after the blood cell separation of the whole blood samples collected from the rats. Measurement of the blood glucose level was carried out by using the blood serum, a Glucose CII-TEST WAKO (manufactured by Wako Pure Chemical Industries, Ltd.) as a reagent and a UV-160A (manufactured by Shimadzu Corporation) as an instrument for absorbance measurement.
Male rats of Wistar strains (age: 5-6 weeks, weight: 180-200 g) kept fast for 16 hours. Then, citrate buffer solution (pH 4.2) of streptozocin (hereinafter called “STZ”) was injected into the rats' abdominal cavity in a dose of 55 mg/kg (weight of rat). Blood samples were taken from the tail vein of the rats 5 days after the injection, to measure blood glucose level. Rats with blood glucose level higher than 250 mg/dL were considered to be diabetic and were used for the tests.
Compounds or fractions were injected into the abdominal cavity of the diabetic rats in a dose of 10 mg/kg (weight of rat) 5 times at intervals of 12 hours. Blood samples were taken from the tail veins of the rats to measure the blood glucose level. Averages and standard deviations of measured values were calculated for groups, each of which had 4 rats. The groups included a negative control group, which was given normal saline solution, and a positive control group of said diabetic rats, which were given a mixture of tolbutamide in a dose of 200 mg/kg (weight of rat) and buformin in a dose of 1 mg/kg (weight of rat) through their abdominal cavity.

[6] = DPPH free radical scavenging activity; details: DPPH 60 μM ethanol solution, 30 minutes room temperature, absorbance 520 nm
Description: 500 μL of each test compound dissolved in ethanol or aqueous solution was mixed with 500 μL of DPPH (1,1-diphenyl 1-2-picrylhydrazyl) ethanol solution (concentration: 60 μM). The mixtures were left at room temperature for 30 minutes, and then their absorbance was measured at 520 nm. The measurements were carried out for each test compound at different concentrations.

IC50 [3] [µg/mL]	IC50 [4] [µg/mL]	Structure (SMILES)	Cell viability [1]	GOT level in blood serum [2]	GPT level in blood serum [2]	TNF-α level in blood serum [2]	Antiproliferative activity against Colon 26-L5 (in words) [3]	Antiproliferative activity against HT-1080 (in words) [4]	Reduction of blood glucose level [5] [%]	Blood glucose level After administration ([5]; after 10 mg/kg into abdominal cavity 5 times at 12 h intervals (positive control: tolbutamide 200 mg/kg + buformin 1 mg/kg), mean ± SD) [mg/dL]	Blood glucose level Before administration ([5]; before administration, mean ± SD, 4 rats) [mg/dL]	Histopathological observation of hepatic cells (apoptosis) [2]	ED50 DPPH free radical scavenging [6] [µg/mL]
35.2 (≈ 102 µM)	62.2 (≈ 180 µM)	COc1cc(C[C@H]2CO[C@H](c3ccc(O)c(O)c3)[C@H]2CO)ccc1O [TAX, Taxiresinol]	increased cell viability considerably in a dose-dependent manner	inhibit the increase	inhibit the increase	inhibit the increase	showed antiproliferative activity	showed antiproliferative activity	20.9	250.2 ± 35.5	316.1 ± 19.9		
36.5 (≈ 105 µM)	43.8 (≈ 126 µM)	COc1cc2c(cc1O)[C@H](c1ccc(O)c(O)c1)[C@@H](CO)[C@H](CO)C2 [ITX, Isotaxiresinol]	results similar to that of TAX	inhibit the increase	inhibit the increase	inhibit the increase	showed antiproliferative activity	showed antiproliferative activity	23.6			less apoptosis corpuscles in the cells and less concentrated chromatins in the cell nucleuses	
> 100	> 100	COc1cc([C@H]2OC[C@H]([C@@H](O)c3ccc(O)c(OC)c3)[C@@H]2CO)ccc1O [HYL, (7′R)-7′-Hydroxylariciresinol]	results similar to that of TAX	inhibit the increase	inhibit the increase	inhibit the increase							

Further lines, the molecule ahead of its results:

Structure (SMILES)	IC50 [3] [µg/mL]	IC50 [4] [µg/mL]	Cell viability [1]	GOT level in blood serum [2]	GPT level in blood serum [2]	TNF-α level in blood serum [2]	Antiproliferative activity against Colon 26-L5 (in words) [3]	Antiproliferative activity against HT-1080 (in words) [4]	Reduction of blood glucose level [5] [%]	Blood glucose level After administration ([5]; after 10 mg/kg into abdominal cavity 5 times at 12 h intervals (positive control: tolbutamide 200 mg/kg + buformin 1 mg/kg), mean ± SD) [mg/dL]	Blood glucose level Before administration ([5]; before administration, mean ± SD, 4 rats) [mg/dL]	Histopathological observation of hepatic cells (apoptosis) [2]	ED50 DPPH free radical scavenging [6] [µg/mL]
COc1cc(C[C@@H](CO)[C@H](CO)Cc2ccc(O)c(OC)c2)ccc1O [SIL, Secoisolariciresinol]	60.2 (≈ 166 µM)	5.9 (≈ 16.3 µM)	results similar to that of TAX	inhibit the increase	inhibit the increase	inhibit the increase		noticeable antiproliferative activity	33.4			less apoptosis corpuscles in the cells and less concentrated chromatins in the cell nucleuses	
O=C(O)/C=C/c1ccc(O)c(O)c1 [Caffeic Acid]													5.41 (≈ 30 µM)
O=c1[nH]cc(F)c(=O)[nH]1 [5-Fluorouracil, reference compound]	0.07 (≈ 0.538 µM)	0.29 (≈ 2.23 µM)											
